Data on 31 compounds can be found in patent US9315490B2, “2,5-substituted pyrimidines” (Grünenthal GmbH, priority 2014, dated 2016).

In the assay the target is T1, human PDE4B1 (Homo sapiens, UniProt Q07343).
T1 construct: host or cells: Sf9 cells
The assay is described as follows: cAMP HTRF assay to determine the activity of hPDE4B1. The note with it: inhibition of PDE4B at a test concentration of 1 μM; for Inhibition in %: 1 µM. Type of assay: biochemical. A digest of the protocol:
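[…], using HTRF quantitation of residual cAMP after 1 mM IBMX stop and 60 min detection. Enzyme was Sf9-expressed human PDE4B1 incubated 30 min at room temperature with 40 nM final cAMP at pH 7.8.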

T1 sequence (Q07343 whole entry): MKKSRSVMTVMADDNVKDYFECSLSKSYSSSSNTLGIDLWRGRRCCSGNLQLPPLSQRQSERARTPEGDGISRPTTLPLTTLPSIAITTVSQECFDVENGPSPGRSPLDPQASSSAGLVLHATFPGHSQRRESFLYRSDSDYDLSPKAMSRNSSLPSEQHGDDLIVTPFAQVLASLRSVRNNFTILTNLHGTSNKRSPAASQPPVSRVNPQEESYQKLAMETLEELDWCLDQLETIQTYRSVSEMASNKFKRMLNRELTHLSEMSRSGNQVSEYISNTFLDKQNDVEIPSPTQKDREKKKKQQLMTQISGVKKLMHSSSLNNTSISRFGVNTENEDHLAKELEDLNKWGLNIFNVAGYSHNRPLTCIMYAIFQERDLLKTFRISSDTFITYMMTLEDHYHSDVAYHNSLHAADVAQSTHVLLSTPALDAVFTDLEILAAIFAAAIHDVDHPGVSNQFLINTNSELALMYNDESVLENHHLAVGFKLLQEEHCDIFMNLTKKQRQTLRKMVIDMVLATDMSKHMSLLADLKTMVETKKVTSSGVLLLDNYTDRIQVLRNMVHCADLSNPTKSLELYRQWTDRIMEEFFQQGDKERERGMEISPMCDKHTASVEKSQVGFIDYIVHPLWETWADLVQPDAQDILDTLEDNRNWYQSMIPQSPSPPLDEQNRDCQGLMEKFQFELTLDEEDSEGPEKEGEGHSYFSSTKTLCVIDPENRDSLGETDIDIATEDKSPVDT

On to `CS(=O)(=O)c1cn(-c2ncc(-c3ccccc3F)cn2)c2cc(C(=O)N3C[C@@H]4C[C@H]3CN4)ccc12` [Example 239, (1S,4S)-2,5-Diazabicyclo[2.2.1]heptan-2-yl(1-(5-(2-fluorophenyl)pyrimidin-2-yl)-3-(methylsulfonyl)-1H-indol-6-yl)methanone], for which the inhibition at 1 µM was 78%.

Regarding `CS(=O)(=O)c1cn(-c2ncc(-c3ccccc3F)cn2)c2cc(C(=O)N3CC[C@@H](N)C3)ccc12` [Example 69, (R)-(3-Aminopyrrolidin-1-yl)(1-(5-(2-fluorophenyl)pyrimidin-2-yl)-3-(methylsulfonyl)-1H-indol-6-yl)methanone], the inhibition at 1 µM came out at 95%.

For the compound `C[S+]([O-])c1cn(-c2ncc(-c3ccccc3F)cn2)c2cc(C(=O)N3CCC(O)CC3)ccc12` (stereo not shown) [Example 73, (1-(5-(2-Fluorophenyl)pyrimidin-2-yl)-3-(methylsulfinyl)-1H-indol-6-yl)(4-hydroxypiperidin-1-yl)methanone], the inhibition at 1 µM turned out to be 78%.

Take `C[S+]([O-])c1cn(-c2ncc(-c3ccccc3F)cn2)c2cc(C(=O)NC3COC3)ccc12` (stereo not shown) [Example 75, 1-(5-(2-Fluorophenyl)pyrimidin-2-yl)-3-(methylsulfinyl)-N-(oxetan-3-yl)-1H-indole-6-carboxamide]: the inhibition at 1 µM came to 47%.

With `CN(CCO)C(=O)c1ccc2c([S+](C)[O-])cn(-c3ncc(-c4ccccc4F)cn3)c2c1` (stereo not shown) [Example 64, 1-(5-(2-Fluorophenyl)pyrimidin-2-yl)-N-(2-hydroxyethyl)-N-methyl-3-(methylsulfinyl)-1H-indole-6-carboxamide], the inhibition at 1 µM amounted to 67%.

`COc1ccc(F)c(-c2cnc(-n3cc([S+](C)[O-])c4ccc(C(=O)N5CCOCC5)cc43)nc2)c1` (single isomer, unassigned) [Example 161, (1-(5-(2-Fluoro-5-methoxyphenyl)pyrimidin-2-yl)-3-(methylsulfinyl)-1H-indol-6-yl)(morpholino)methanone]: the Inhibition in % is listed as 109%.

For `C[S+]([O-])c1cn(-c2ncc(-c3cccc(F)c3)cn2)c2cc(C(=O)N3CCOCC3)ccc12` (stereo not shown) [Example 34, (1-(5-(3-Fluorophenyl)pyrimidin-2-yl)-3-(methylsulfinyl)-1H-indol-6-yl)(morpholino)methanone], the inhibition at 1 µM turned out to be 90%.

For `C[S+]([O-])c1cn(-c2ncc(-c3ccccc3F)cn2)c2cc(C(=O)N3CCCCCC3)ccc12` (stereo not shown) [Example 364, Azepan-1-yl(1-(5-(2-fluorophenyl)pyrimidin-2-yl)-3-(methylsulfinyl)-1H-indol-6-yl)methanone], the inhibition at 1 µM was 73%.

On to `COC[C@@H]1CCCN1C(=O)c1ccc2c([S+](C)[O-])cn(-c3ncc(-c4ccccc4F)cn3)c2c1` (stereo partly shown) [Example 71], for which the inhibition at 1 µM was 63%.

Consider `C[C@H]1COCCN1C(=O)c1ccc2c([S+](C)[O-])cn(-c3ncc(-c4ccccc4F)cn3)c2c1` (stereo partly drawn) [Example 178, (1-(5-(2-Fluorophenyl)pyrimidin-2-yl)-3-(methylsulfinyl)-1H-indol-6-yl)((S)-3-methylmorpholino)methanone], for which the inhibition at 1 µM was 88%.

Consider `C[S+]([O-])c1cn(-c2ncc(-c3ccccc3F)cn2)c2cc(C(=O)N3CCNC(=O)C3)ccc12` (stereo not shown) [Example 56, 4-(1-(5-(2-Fluorophenyl)pyrimidin-2-yl)-3-(methylsulfinyl)-1H-indole-6-carbonyl)piperazin-2-one], for which the inhibition at 1 µM is 86%.

Regarding `C[S+]([O-])c1cn(-c2ncc(-c3ccccc3F)cn2)c2cc(C(=O)N3CCC[C@H](O)C3)ccc12` (stereo partly drawn) [Example 81, (1-(5-(2-Fluorophenyl)pyrimidin-2-yl)-3-(methylsulfinyl)-1H-indol-6-yl)((S)-3-hydroxypiperidin-1-yl)methanone], the inhibition at 1 µM was found to be 63%.

In the case of `COc1ccc(F)c(-c2cnc(-n3cc([S+](C)[O-])c4ccc(C(=O)N5CCOCC5)cc43)nc2)c1` (single isomer, unassigned) [Example 160, (1-(5-(2-Fluoro-5-methoxyphenyl)pyrimidin-2-yl)-3-(methylsulfinyl)-1H-indol-6-yl)(morpholino)methanone], the inhibition at 1 µM turned out to be 107%.

Take `CC1CCCN(C(=O)c2ccc3c([S+](C)[O-])cn(-c4ncc(-c5ccccc5F)cn4)c3c2)C1` (stereo not shown) [Example 362, (1-(5-(2-Fluorophenyl)pyrimidin-2-yl)-3-(methylsulfinyl)-1H-indol-6-yl)(3-methylpiperidin-1-yl)methanone]: the inhibition at 1 µM was determined as 78%.

Take `CO[C@@H]1CCN(C(=O)c2ccc3c([S+](C)[O-])cn(-c4ncc(-c5ccccc5F)cn4)c3c2)C1` (stereo partly drawn) [Example 82, (1-(5-(2-Fluorophenyl)pyrimidin-2-yl)-3-(methylsulfinyl)-1H-indol-6-yl)((R)-3-methoxypyrrolidin-1-yl)methanone]: the inhibition at 1 µM is 71%.

With `COC1CCN(C(=O)c2ccc3c([S+](C)[O-])cn(-c4ncc(-c5ccccc5F)cn4)c3c2)CC1` (stereo not shown) [Example 381, (1-(5-(2-Fluorophenyl)pyrimidin-2-yl)-3-(methylsulfinyl)-1H-indol-6-yl)(4-methoxypiperidin-1-yl)methanone], the Inhibition in % is reported as 12%.

Take `CC(O)c1cn(-c2ncc(-c3ccccc3)cn2)c2cc(C(=O)N3CCOCC3)ccc12` (single isomer, unassigned) [Example 254, (3-(1-Hydroxyethyl)-1-(5-phenylpyrimidin-2-yl)-1H-indol-6-yl)(morpholino)methanone]: the inhibition at 1 µM worked out at 95%.

Regarding `C[C@H]1CN(C(=O)c2ccc3c([S+](C)[O-])cn(-c4ncc(-c5ccccc5F)cn4)c3c2)CCO1` (stereo partly drawn) [Example 85, (1-(5-(2-Fluorophenyl)pyrimidin-2-yl)-3-(methylsulfinyl)-1H-indol-6-yl)((S)-2-methylmorpholino)methanone], the inhibition at 1 µM was found to be 115%.

Regarding `CC(=O)N1CCN(C(=O)c2ccc3c([S+](C)[O-])cn(-c4ncc(-c5ccccc5F)cn4)c3c2)CC1` (stereo not shown) [Example 385, 1-(4-(1-(5-(2-Fluorophenyl)pyrimidin-2-yl)-3-(methylsulfinyl)-1H-indole-6-carbonyl)piperazin-1-yl)ethanone], the inhibition at 1 µM turned out to be 0%.

Regarding `CCN(C)C(=O)c1ccc2c([S+](C)[O-])cn(-c3ncc(-c4ccccc4F)cn3)c2c1` (stereo not shown) [Example 356, N-Ethyl-1-(5-(2-fluorophenyl)pyrimidin-2-yl)-N-methyl-3-(methylsulfinyl)-1H-indole-6-carboxamide], the inhibition at 1 µM came to 96%.

On to `C[S+]([O-])c1cn(-c2ncc(-c3ccccc3)cn2)c2cc(C(=O)N3CCNC(=O)C3)ccc12` (stereo not shown) [Example 70, 4-(3-(Methylsulfinyl)-1-(5-phenylpyrimidin-2-yl)-1H-indole-6-carbonyl)piperazin-2-one], for which the inhibition at 1 µM amounted to 84%.

`C[S+]([O-])c1cn(-c2ncc(-c3c(F)cccc3F)cn2)c2cc(C(=O)N3CCOCC3)ccc12` (stereo not shown) [Example 44, (1-(5-(2,6-Difluorophenyl)pyrimidin-2-yl)-3-(methylsulfinyl)-1H-indol-6-yl)(morpholino)methanone]: the inhibition at 1 µM worked out at 82%.

Turning to `Cc1ccc(F)c(-c2cnc(-n3cc([S+](C)[O-])c4ccc(C(=O)N5CC[C@@H](N)C5)cc43)nc2)c1` (stereo partly drawn) [Example 227, ((R)-3-Aminopyrrolidin-1-yl)(1-(5-(2-fluoro-5-methylphenyl)pyrimidin-2-yl)-3-(methylsulfinyl)-1H-indol-6-yl)methanone], the inhibition at 1 µM was determined as 108%.

Turning to `CS(=O)(=O)c1cn(-c2ncc(-c3ccccc3)cn2)c2cc(C(=O)N3CCNCC3)ccc12` [Example 21, (3-(Methylsulfonyl)-1-(5-phenylpyrimidin-2-yl)-1H-indol-6-yl)(piperazin-1-yl)methanone], the inhibition at 1 µM was found to be 32%.

Consider `C[S+]([O-])c1cn(-c2ncc(-c3ccccn3)cn2)c2cc(C(=O)N3CCOCC3)ccc12` (stereo not shown) [Example 50, (3-(Methylsulfinyl)-1-(5-(pyridin-2-yl)pyrimidin-2-yl)-1H-indol-6-yl)(morpholino)methanone], for which the inhibition at 1 µM is 91%.

As for `CCOC(=O)C1CCN(C(=O)c2ccc3c([S+](C)[O-])cn(-c4ncc(-c5ccccc5F)cn4)c3c2)CC1` (stereo not shown) [Example 393, Ethyl 1-(1-(5-(2-fluorophenyl)pyrimidin-2-yl)-3-(methylsulfinyl)-1H-indole-6-carbonyl)piperidine-4-carboxylate], the inhibition at 1 µM came out at 10%.

Take `C[S+]([O-])c1cn(-c2ncc(-c3ccccc3F)cn2)c2cc(C(=O)N3CCC3)ccc12` (stereo not shown) [Example 355, Azetidin-1-yl(1-(5-(2-fluorophenyl)pyrimidin-2-yl)-3-(methylsulfinyl)-1H-indol-6-yl)methanone]: the inhibition at 1 µM was found to be 77%.

Take `C[S+]([O-])c1cn(-c2ncc(-c3cc(C(N)=O)ccc3F)cn2)c2cc(C(=O)N3CCOCC3)ccc12` (stereo not shown) [Example 43, 4-Fluoro-3-(2-(3-(methylsulfinyl)-6-(morpholine-4-carbonyl)-1H-indol-1-yl)pyrimidin-5-yl)benzamide]: the inhibition at 1 µM is 83%.

As for `CCN1CCN(C(=O)c2ccc3c([S+](C)[O-])cn(-c4ncc(-c5ccccc5F)cn4)c3c2)CC1` (stereo not shown) [Example 375, (4-Ethylpiperazin-1-yl)(1-(5-(2-fluorophenyl)pyrimidin-2-yl)-3-(methylsulfinyl)-1H-indol-6-yl)methanone], the inhibition at 1 µM came to 66%.

Take `C[S+]([O-])c1cn(-c2ncc(-c3ccccc3F)cn2)c2cc(C(=O)N3CCSCC3)ccc12` (stereo not shown) [Example 368, (1-(5-(2-Fluorophenyl)pyrimidin-2-yl)-3-(methylsulfinyl)-1H-indol-6-yl)(thiomorpholino)methanone]: the inhibition at 1 µM was found to be 103%.

Turning to `CN(CCC(=O)O)C(=O)c1ccc2c([S+](C)[O-])cn(-c3ncc(-c4ccccc4F)cn3)c2c1` (stereo not shown) [Example 369, 3-(1-(5-(2-Fluorophenyl)pyrimidin-2-yl)-N-methyl-3-(methylsulfinyl)-1H-indole-6-carboxamido)propanoic acid], the inhibition at 1 µM was determined as 87%.
